# Biological target: human TRPA1 (Homo sapiens (Human), UniProt O75762)
# Assay: Measurement of TRPA1 antagonist activity (1): intracellular calcium increase
# Type: cell-based
# Conditions: 293T cells transfected with human TRPA1 expression plasmid; allylisothiocyanate 20 μM stimulation; intracellular calcium fluorescence; read-out: hTRPA1 IC50
# In short: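 Calcium-flux readout of TRPA1 block: compound given 10 min before 20 μM (final) allylisothiocyanate, fluorescence tracked 5 min. Cells were 293T transiently expressing human TRPA1, dye-loaded 1 hr in HBSS, 20 mM HEPES, pH 7.2. Inhibition scaled between agonist-only and buffer-only responses; IC50 by sigmoid fitting.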
# Sequence of human TRPA1 (O75762 whole entry): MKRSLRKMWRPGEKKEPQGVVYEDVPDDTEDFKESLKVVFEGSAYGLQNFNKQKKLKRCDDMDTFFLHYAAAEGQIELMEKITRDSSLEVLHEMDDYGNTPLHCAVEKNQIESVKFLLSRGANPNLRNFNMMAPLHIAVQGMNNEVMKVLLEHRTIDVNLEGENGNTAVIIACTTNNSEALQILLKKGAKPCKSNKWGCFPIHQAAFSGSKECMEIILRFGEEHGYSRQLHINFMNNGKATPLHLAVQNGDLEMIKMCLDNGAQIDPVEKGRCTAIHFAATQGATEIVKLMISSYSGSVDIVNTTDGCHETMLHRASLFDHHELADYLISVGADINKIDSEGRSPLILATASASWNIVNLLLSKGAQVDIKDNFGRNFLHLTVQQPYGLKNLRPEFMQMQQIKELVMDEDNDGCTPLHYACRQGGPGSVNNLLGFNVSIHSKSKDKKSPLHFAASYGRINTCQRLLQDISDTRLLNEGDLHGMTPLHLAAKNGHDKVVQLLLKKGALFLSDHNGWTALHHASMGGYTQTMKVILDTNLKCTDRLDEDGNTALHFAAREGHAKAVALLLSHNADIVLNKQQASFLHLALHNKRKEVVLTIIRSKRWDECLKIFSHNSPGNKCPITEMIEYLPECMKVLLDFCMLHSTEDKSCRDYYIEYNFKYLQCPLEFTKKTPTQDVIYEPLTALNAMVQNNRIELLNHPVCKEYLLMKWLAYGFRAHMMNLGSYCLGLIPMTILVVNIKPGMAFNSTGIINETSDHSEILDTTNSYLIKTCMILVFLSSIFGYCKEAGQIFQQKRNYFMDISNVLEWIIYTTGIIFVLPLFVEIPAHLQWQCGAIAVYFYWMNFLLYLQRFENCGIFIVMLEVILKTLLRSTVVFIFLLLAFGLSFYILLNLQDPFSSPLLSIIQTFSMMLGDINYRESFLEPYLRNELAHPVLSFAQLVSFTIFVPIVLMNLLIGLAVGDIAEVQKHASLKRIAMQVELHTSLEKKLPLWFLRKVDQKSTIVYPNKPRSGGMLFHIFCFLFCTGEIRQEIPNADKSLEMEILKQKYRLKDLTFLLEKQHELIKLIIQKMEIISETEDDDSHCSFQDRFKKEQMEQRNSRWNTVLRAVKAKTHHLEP
row,Compound,IC50 [nM]
1,"O=C(NCc1cccc(-c2ccc(C(F)(F)F)cc2O)n1)[C@@H]1CCCN1S(=O)(=O)c1cc2cc(F)ccc2o1 [Example 147, (2S)-1-(5-fluorobenzofuran-2-yl)sulfonyl-N-[[6-[2-hydroxy-4-(trifluoromethyl)phenyl]-2-pyridyl]methyl]pyrrolidine-2-carboxamide]",180
2,"O=C(NCc1cccc(F)c1)[C@@H]1CCCN1S(=O)(=O)c1cc2ccccc2o1 [Example 59, (2S)-1-(benzofuran-2-ylsulfonyl)-N-[(3-fluorophenyl)methyl]pyrrolidine-2-carboxamide]",540
3,"O=C(NCc1cccc(OCc2ccc(C(F)(F)F)nc2)c1)[C@@H]1CCCN1S(=O)(=O)c1cc2cc(F)ccc2o1 [Example 20, (2S)-1-(5-fluorobenzofuran-2-yl)sulfonyl-N-[[3-[[6-(trifluoromethyl)-3-pyridyl]methoxy]phenyl]-methyl]pyrrolidine-2-carboxamide]",1.4
4,"O=C(NCc1cccc(OCc2cncc(Cl)c2)c1)[C@@H]1CCCN1S(=O)(=O)c1cc2ccccc2o1 [Example 10, (2S)-1-(benzofuran-2-ylsulfonyl)-N-[[3-[(5-chloro-3-pyridyl)methoxy]-phenyl]methyl]-pyrrolidine-2-carboxamide]",10
5,"O=C(NCc1cccc(OCc2cccnc2)c1)[C@@H]1CCCN1S(=O)(=O)c1cc2ccccc2o1 [Example 3, (2S)-1-(benzofuran-2-ylsulfonyl)-N-[[3-(3-pyridylmethoxy)phenyl]methyl]pyrrolidine-2-carboxamide]",72
6,"O=C(NCc1ccnc(-c2ccc(C(F)(F)F)cc2O)c1)[C@@H]1CCCN1S(=O)(=O)c1cc2ccccc2o1 [Example 123, (2S)-1-(benzofuran-2-ylsulfonyl)-N-[[2-[2-hydroxy-4-(trifluoromethyl)phenyl]-4-pyridyl]methyl]pyrrolidine-2-carboxamide]",2.6
7,"C[C@H](NS(=O)(=O)c1cc2ccccc2o1)C(=O)NCc1cc(-c2ccc(C(F)(F)F)nc2)ccn1 [Example 105, (2S)-2-(benzofuran-2-ylsulfonylamino)-N-[[4-[6-(trifluoromethyl)-3-pyridyl]-2-pyridyl]methyl]propanamide]",68
8,"C[C@H](NS(=O)(=O)c1cc2cc(F)ccc2o1)C(=O)NCc1cc(-c2ccc(C(F)(F)F)nc2)ccn1 [Example 110, (2S)-2-[(5-fluorobenzofuran-2-yl)sulfonylamino]-N-[[4-[6-(trifluoromethyl)-3-pyridyl]-2-pyridyl]methyl]propanamide]",17
9,"O=C(NCc1cncc(-c2ccc(C(F)(F)F)nc2)c1)[C@@H]1CCCN1S(=O)(=O)c1cc2ccccc2o1 [Example 86, (2S)-1-(benzofuran-2-ylsulfonyl)-N-[[5-[6-(trifluoromethyl)-3-pyridyl]-3-pyridyl]methyl]pyrrolidine-2-carboxamide]",20
10,"C[C@H](NS(=O)(=O)c1cc2cc(F)ccc2o1)C(=O)NCc1cccc(-c2ccc(C(F)(F)F)cn2)c1 [Example 107, (2S)-2-[(5-fluorobenzofuran-2-yl)sulfonylamino]-N-[[3-[5-(trifluoromethyl)-2-pyridyl]phenyl]methyl]propanamide]",6.9
11,"O=C(NCc1cccc(OCC2CCOCC2)c1)[C@@H]1CCCN1S(=O)(=O)c1cc2cc(F)ccc2o1 [Example 30, (2S)-1-(5-fluorobenzofuran-2-yl)sulfonyl-N-[[3-(tetrahydropyran-4-ylmethoxy)phenyl]-methyl]pyrrolidine-2-carboxamide]",8.3
12,"CN(C)c1ccc(-c2cc(CNC(=O)[C@@H]3CCCN3S(=O)(=O)c3cc4ccccc4o3)ccn2)cn1 [Example 125, (2S)-1-(benzofuran-2-ylsulfonyl)-N-[[2-[6-(dimethylamino)-3-pyridyl]-4-pyridyl]methyl]pyrrolidine-2-carboxamide]",240
13,"O=C(NCc1cccc(OC(F)(F)F)c1)[C@@H]1CCCN1S(=O)(=O)c1cc2cc(F)ccc2o1 [Example 65, (2S)-1-(5-fluorobenzofuran-2-yl)sulfonyl-N-[[3-(trifluoromethoxy)phenyl]methyl]-pyrrolidine-2-carboxamide]",15
14,"COc1c(F)ccc(CNC(=O)[C@@H]2CCCN2S(=O)(=O)c2cc3ccccc3o2)c1F [Example 68, (2S)-1-(benzofuran-2-ylsulfonyl)-N-[(2,4-difluoro-3-methoxy-phenyl)methyl]pyrrolidine-2-carboxamide]",390
15,"O=C(NCc1cncc(-c2ccc(C(F)(F)F)cn2)c1)[C@@H]1CCCN1S(=O)(=O)c1cc2cc(F)ccc2o1 [Example 141, (2S)-1-(5-fluorobenzofuran-2-yl)sulfonyl-N-[[5-[5-(trifluoromethyl)-2-pyridyl]-3-pyridyl]methyl]pyrrolidine-2-carboxamide]",3.3
16,"Cn1nc(C(F)(F)F)cc1-c1cc(CNC(=O)[C@@H]2CCCN2S(=O)(=O)c2cc3ccccc3o2)ccn1 [Example 127, (2S)-1-(benzofuran-2-ylsulfonyl)-N-[[2-[2-methyl-5-(trifluoromethyl)pyrazol-3-yl]-4-pyridyl]methyl]pyrrolidine-2-carboxamide]",25
17,"CC(C)(C)OC[C@H](NS(=O)(=O)c1cc2cc(F)ccc2o1)C(=O)NCc1cccc(-c2ccc(C(F)(F)F)nc2)c1 [Example 189, (2S)-3-tert-butoxy-2-[(5-fluorobenzofuran-2-yl)sulfonylamino]-N-[[3-[6-trifluoromethyl-3-pyridyl]phenyl]methyl]propanamide]",840
18,"O=C(NCc1ccnc(-c2ccc(OC(F)(F)F)cc2)c1)[C@@H]1CCCN1S(=O)(=O)c1cc2ccccc2o1 [Example 116, (2S)-1-(benzofuran-2-ylsulfonyl)-N-[[2-[4-(trifluoromethoxy)phenyl]-4-pyridyl]methyl]pyrrolidine-2-carboxamide]",2.9

# The remaining lines, values ahead:
row,IC50 [nM],Compound
1,140,"O=C(NCc1ccc(-c2ccccc2C(F)(F)F)cc1)[C@@H]1CCCN1S(=O)(=O)c1cc2ccccc2o1 [Example 167, (2S)-1-(benzofuran-2-ylsulfonyl)-N-[[4-[2-(trifluoromethyl)phenyl]-phenyl]methyl]pyrrolidine-2-carboxamide]"
2,72,"C[C@H](NS(=O)(=O)c1cc2cc(F)ccc2o1)C(=O)NCc1cc(-c2ccc(C(F)(F)F)cc2)cnn1 [Example 250, (2S)-2-[(5-fluorobenzofuran-2-yl)sulfonylamino]-N-[[5-[4-(trifluoromethyl)phenyl]-pyridazin-3-yl]methyl]propanamide]"
3,21,"O=C(NCc1cc(-c2ccc(C(F)(F)F)cn2)ccn1)[C@@H]1CC=CCN1S(=O)(=O)c1cc2cc(F)ccc2o1 [Example 263, (2S)-1-(5-fluorobenzofuran-2-yl)sulfonyl-N-[[4-[5-(trifluoromethyl)-2-pyridyl]-2-pyridyl]methyl]-3,6-dihydro-2H-pyridine-2-carboxamide]"
4,1.9,"O=C(NCc1cc(-c2ccc(C(F)(F)F)nc2)ccn1)[C@@H]1CCCN1S(=O)(=O)c1cc2ccccc2o1 [Example 151, (2S)-1-(benzofuran-2-ylsulfonyl)-N-[[4-[6-(trifluoromethyl)-3-pyridyl]-2-pyridyl]methyl]pyrrolidine-2-carboxamide]"
5,250,"C[C@H](NS(=O)(=O)c1cc2cc(F)ccc2o1)C(=O)NCc1cccc(OCC2CCOCC2)c1 [Example 185, (2S)-2-[(5-fluorobenzofuran-2-yl)sulfonylamino]-N-[[3-(tetrahydropyran-4-ylmethoxy)phenyl]methyl]propanamide]"
6,4.4,"O=C(NCc1ccnc(-c2ccc(C(F)(F)F)cc2O)c1)[C@@H]1CCCN1S(=O)(=O)c1cc2cnccc2o1 [Example 271, (2S)-1-furo[3,2-c]pyridin-2-ylsulfonyl-N-[[2-[2-hydroxy-4-(trifluoromethyl)phenyl]-4-pyridyl]methyl]pyrrolidine-2-carboxamide]"
7,1.3,(2S)-1-(5-fluorobenzofuran-2-yl)sulfonyl-N-[[3-[[4-(trifluoromethyl)phenyl]methoxy]-phenyl]methyl]pyrrolidine-2-carboxamide [Example 41]
8,19,"O=C(NCc1cccc(-c2ccc(N3CCCC3)nc2)c1)[C@@H]1CCCN1S(=O)(=O)c1cc2cc(F)ccc2o1 [Example 160, (2S)-1-(5-fluorobenzofuran-2-yl)sulfonyl-N-[[3-(6-pyrrolidin-1-yl-3-pyridyl)phenyl]methyl]-pyrrolidine-2-carboxamide]"
9,490,"O=C(NCc1cccc(S(=O)(=O)Cc2ccc(C(F)(F)F)cc2)c1)[C@@H]1CCCN1S(=O)(=O)c1cc2ccccc2o1 [Example 324, (2S)-1-(benzofuran-2-ylsulfonyl)-N-[[3-[[4-(trifluoromethyl)phenyl]methylsulfonyl]phenyl]methyl]pyrrolidine-2-carboxamide]"
10,2.2,"O=C(NCc1cc(-c2ccc(C(F)(F)F)cc2)ccn1)[C@@H]1CCCN1S(=O)(=O)c1cc2cc(F)ccc2o1 [Example 148, (2S)-1-(5-fluorobenzofuran-2-yl)sulfonyl-N-[[4-[4-(trifluoromethyl)phenyl]-2-pyridyl]methyl]pyrrolidine-2-carboxamide]"
11,230,"O=C(NCc1cccc([S+]([O-])Cc2ccc(C(F)(F)F)cc2)c1)[C@@H]1CCCN1S(=O)(=O)c1cc2ccccc2o1 (stereo partly drawn) [Example 316, (2S)-1-(benzofuran-2-ylsulfonyl)-N-[[3-[[4-(trifluoromethyl)phenyl]methylsulfinyl]phenyl]methyl]pyrrolidine-2-carboxamide]"
12,2.5,"O=C(NCc1cccc(-c2cnc(C(F)(F)F)nc2)c1)[C@@H]1CCCN1S(=O)(=O)c1cc2ccccc2o1 [Example 195, (2S)-1-(benzofuran-2-ylsulfonyl)-N-[[3-[2-(trifluoromethyl)pyrimidin-5-yl]phenyl]-methyl]pyrrolidine-2-carboxamide]"
13,7.9,"C[C@H](NC(=O)[C@@H]1CCCN1S(=O)(=O)c1cc2ccccc2o1)c1cccc(-c2ccc(C(F)(F)F)nc2)c1 [Example 287, (2S)-1-(benzofuran-2-ylsulfonyl)-N-[(1S)-1-[3-[6-(trifluoromethyl)-3-pyridyl]phenyl]ethyl]pyrrolidine-2-carboxamide]"

# Reference: US10626112B2, “Heterocyclic sulfonamide derivative and medicine comprising same” (EA PHARMA CO., LTD., priority 2014, dated 2020)
